For series [1], the system named is Ehrlich-Ascites-Karzinom. The series is described as follows: Inhibition of tumour growth, Ehrlich ascites carcinoma in mice. The class given is in vivo, Mäusen.
The subject of series [2] is Walker CaSa 256. In words: Inhibition of tumour growth, Walker CaSa 256 in rats. The class given is in vivo, Ratten.
The test system of series [3] is Leukämie L 1210. In words: Prolongation of life, leukaemia L 1210 in mice. Format: in vivo, Mäusen. On the procedure: So bewirken sie in Dosen von 25-500 mg/kg i.p. eine starke Hemmung des Tumorwachstums bei Mäusen mit z.B. Ehrlich-Ascites-Karzinom und bei Ratten mit z.B. Walker CaSa 256. Analoge Dosen bewirken eine Lebensverlängerung gegenüber Kontrollen bei Mäusen mit z.B. Leukämie L 1210.

Series [4] is described as follows: Tolerability and side effects on treatment. The class given is in vivo.
Series [5] in a line: Macroscopic organ changes in normal animals after three weeks of peroral treatment. Format: in vivo.

Consider `CCO[C@@H]1O[C@H]([C@@H](CNC(=O)N(C)N=O)OC)[C@H](O)[C@H]1O` [Äthyl-6-desoxy-5-0-methyl-6-(3-methyl-3-nitroso-ureido)-ß-D-glucofuranosid], for which the “Hemmung des Wachstums der genannten Tumoren” value in series [1] (50-250 mg/kg i.p., mice with Ehrlich ascites carcinoma) is given as 80-100%; in series [1] (p.o. application, Ehrlich ascites carcinoma) it was “Ähnliche Resultate”; in series [2] (50-250 mg/kg i.p., rats with Walker CaSa 256) it was 80-100%; in series [2] (p.o. application, Walker CaSa 256), “Ähnliche Resultate”. In addition, the Lebensverlängerung in series [3] (50-250 mg/kg i.p.) is on record as more than 90%; in series [3] (p.o. application) it was “Ähnliche Resultate”. In addition, the Nebenwirkungen result in series [4] (also on prolonged treatment) is recorded as “nicht festzustellen”. The Verträglichkeit entry in series [4] (in vivo) was “gut”. Besides, the Organveränderungen entry in series [5] is recorded as “keine Organveränderungen”.

These data come from patent publication EP0003788B1, “Glycofuranosyl-nitrosourea derivatives, process for their manufacture and their pharmaceutical preparations” (CIBA-GEIGY AG, priority 1978, dated 1979).
